Assay results published in patent US8709381B2, “Compound containing a carbon or an oxygen isotope, preparation and use thereof, and composition comprising thereof” (Beijing Top Grade Medical Equipment Co., Ltd, priority 2010, dated 2014).

Columns and labels:
porphyrin synthesis = conditions: in vivo
Description: Example 4 relates to a study of imaging of porphyrin synthesis in-vivo.
Porphyrin plays an important role in an organism. It is important for the study of physiological conditions, biochemical condition, and diseases to know the porphyrin synthesis in vivo. 5-ALA is a precursor of the porphyrin synthesis. After it is irradiated by photons of 50 MV with a dosage of 30 Gy (gray), a ^12C atom of the 5-ALA molecule is converted into an ^11C positron nuclide and a ^16O atom therein is converted into an ^15O positron nuclide.

[1] = fluorescence analysis of structure after photon irradiation; type: physicochemical; conditions: 3 mg irradiated by 50 MV photons, 30 Gy
Method: (§1) The details of the procedure of the present example are as follow: 3 mg of adriamycin is irradiated by 50 MV of photons with a dosage of 30 Gy (gray). […] A ^12C atom of the adriamycin molecule is converted into a ^11C positron nuclide and an ^16O atom therein is converted into a ^15O positron nuclide.

SD rats = experiment: distribution after tail vein injection of 11C/15O-labeled adriamycin; type: in vivo, rat; conditions: labeled with 11C and 15O
Method: as §1

structure after the irradiation (fluorescence analysis) [1]	site of accumulation in vivo (SD rats)	SMILES	main organ of porphyrin synthesis (porphyrin synthesis)
		NCC(=O)CCC(=O)O [5-ALA]	liver is the main organ of porphyrin synthesis
no change in the structure	accumulates at the heart	COc1cccc2c1C(=O)c1c(O)c3c(c(O)c1C2=O)C[C@@](O)(C(=O)CO)C[C@@H]3O[C@H]1C[C@H](N)[C@H](O)[C@H](C)O1 [adriamycin]	
